Laboratory results: article PMC9270327 (Communications Biology, 2022)
Where a name gives a salt, the structure may show the parent alone. Read-outs that look alike come from different tables or passages of the source.

Tests used:
[1] = test system: SARS-CoV-2 Alpha (B.1.1.7), Caco-2 cells; type: cell-based
[2] = target: T1, TMPRSS2 (Homo sapiens, UniProt O15393); experiment: Plasma stability: residual TMPRSS2 inhibition after incubation in human plasma
Description: (§1) The activity of the compounds against the recombinant human enzymes was determined in enzyme inhibition assays. […] The measurements were performed on a Tecan infinite® M1000 and the fluorescence intensity was measured by exciting the AMC fluorophore at 380 nm wavelength and recording emission at 460 nm wavelength. […] Fluorescence intensities and absorption were measured every 2 min for 2 h or as endpoint after 2 h. […] To determine the IC50 values, the concentration-response data were plotted with the program GraphPad prism version 8.4.2 (San Diego, California) and a nonlinear regression fit with the equation [Inhibitor] vs. normalized response was applied. The inhibitory constant Ki was calculated from the IC50 values using the Cheng–Prusoff equation (Ki = IC50/[S]/KM) for competitive reversible inhibitors[66].
(§2) The stability of the inhibitors was measured according to a modified procedure from ref. [67]. […] At indicated timepoints, 100 µL samples were taken and mixed with 200 µL of ethanol to precipitate proteins. […] The supernatant was aspirated and analyzed using analytical HPLC. The residual inhibitory constants Ki after incubation was assessed by mixing serial dilutions of the inhibitor with recombinant TMPRSS2 as described above.
(§3) Shown are the means ± SD of n=1 experiment performed in triplicates.

[3] = target: T1, TMPRSS2; experiment: Cell culture medium stability: residual TMPRSS2 inhibition after incubation in medium
Description: as §1, §2
were mixed with recombinant TMPRSS2, followed by the addition of the fluorogenic reference
as §3

[4] = inhibitor 0.0167 nM, positive ctrl
[5] = inhibitor 0.167 nM, positive ctrl
[6] = inhibitor 1.665 nM, positive ctrl
[7] = inhibitor 16.65 nM, positive ctrl

T1 sequence (O15393 whole entry): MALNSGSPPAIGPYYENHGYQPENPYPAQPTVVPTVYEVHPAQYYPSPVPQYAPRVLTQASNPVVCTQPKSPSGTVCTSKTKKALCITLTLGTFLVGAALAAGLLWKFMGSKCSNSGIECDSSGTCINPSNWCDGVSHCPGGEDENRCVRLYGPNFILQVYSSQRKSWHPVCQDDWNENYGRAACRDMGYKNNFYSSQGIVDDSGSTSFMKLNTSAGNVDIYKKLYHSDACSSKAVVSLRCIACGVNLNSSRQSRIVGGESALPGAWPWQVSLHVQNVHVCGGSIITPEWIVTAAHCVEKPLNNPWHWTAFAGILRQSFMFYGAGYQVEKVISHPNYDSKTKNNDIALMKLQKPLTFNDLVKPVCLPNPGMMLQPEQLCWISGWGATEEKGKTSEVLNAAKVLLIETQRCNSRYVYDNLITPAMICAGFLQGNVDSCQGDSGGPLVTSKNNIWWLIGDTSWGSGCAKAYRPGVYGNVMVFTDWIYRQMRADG

## CN(C)C(=O)COC(=O)Cc1ccc(OC(=O)c2ccc(NC(=N)N)cc2)cc1 [CM, camostat mesylate, reference compound]
[1]; read-out: IC50 SARS-CoV-2 Alpha
  IC50: 16.4 µM
[1]; read-out: IC50 SARS-CoV-2 Alpha (text)
  IC50: 16.4 µM
[2]; inhibitor 0.0167 nM, 0 min in plasma
  TMPRSS2 activity, Mean (0 nM = 100): 112.439
[2]; inhibitor 0.0167 nM, 30 min in plasma
  TMPRSS2 activity, Mean (0 nM = 100): 99.4869
[2]; inhibitor 0.0167 nM, 60 min in plasma
  TMPRSS2 activity, Mean (0 nM = 100): 94.1158
[2]; inhibitor 0.0167 nM, 120 min in plasma
  TMPRSS2 activity, Mean (0 nM = 100): 100.839
[2]; inhibitor 0.0167 nM, 24 h in plasma
  TMPRSS2 activity, Mean (0 nM = 100): 102.049
[2]; inhibitor 0.0167 nM, 10 d in plasma
  TMPRSS2 activity, Mean (0 nM = 100): 98.7798
[2]; [4]
  TMPRSS2 activity, Mean (0 nM = 100): 95.8208
[2]; inhibitor 0.167 nM, 0 min in plasma
  TMPRSS2 activity, Mean (0 nM = 100): 118.068
[2]; inhibitor 0.167 nM, 30 min in plasma
  TMPRSS2 activity, Mean (0 nM = 100): 99.3363
[2]; inhibitor 0.167 nM, 60 min in plasma
  TMPRSS2 activity, Mean (0 nM = 100): 90.9592
[2]; inhibitor 0.167 nM, 120 min in plasma
  TMPRSS2 activity, Mean (0 nM = 100): 99.9584
[2]; inhibitor 0.167 nM, 24 h in plasma
  TMPRSS2 activity, Mean (0 nM = 100): 103.994
[2]; inhibitor 0.167 nM, 10 d in plasma
  TMPRSS2 activity, Mean (0 nM = 100): 99.2067
[2]; [5]
  TMPRSS2 activity, Mean (0 nM = 100): 72.6812
[2]; inhibitor 1.665 nM, 0 min in plasma
  TMPRSS2 activity, Mean (0 nM = 100): 103.981
[2]; inhibitor 1.665 nM, 30 min in plasma
  TMPRSS2 activity, Mean (0 nM = 100): 95.5323
[2]; inhibitor 1.665 nM, 60 min in plasma
  TMPRSS2 activity, Mean (0 nM = 100): 85.541
[2]; inhibitor 1.665 nM, 120 min in plasma
  TMPRSS2 activity, Mean (0 nM = 100): 96.8319
[2]; inhibitor 1.665 nM, 24 h in plasma
  TMPRSS2 activity, Mean (0 nM = 100): 101.166
[2]; inhibitor 1.665 nM, 10 d in plasma
  TMPRSS2 activity, Mean (0 nM = 100): 96.8623
[2]; [6]
  TMPRSS2 activity, Mean (0 nM = 100): 21.364
[2]; inhibitor 16.65 nM, 0 min in plasma
  TMPRSS2 activity, Mean (0 nM = 100): 71.7511
[2]; inhibitor 16.65 nM, 30 min in plasma
  TMPRSS2 activity, Mean (0 nM = 100): 65.1615
[2]; inhibitor 16.65 nM, 60 min in plasma
  TMPRSS2 activity, Mean (0 nM = 100): 67.6129
[2]; inhibitor 16.65 nM, 120 min in plasma
  TMPRSS2 activity, Mean (0 nM = 100): 74.7383
[2]; inhibitor 16.65 nM, 24 h in plasma
  TMPRSS2 activity, Mean (0 nM = 100): 100.72
[2]; inhibitor 16.65 nM, 10 d in plasma
  TMPRSS2 activity, Mean (0 nM = 100): 95.3646
[2]; [7]
  TMPRSS2 activity, Mean (0 nM = 100): 5.9227
[2]; inhibitor 166.5 nM, 0 min in plasma
  TMPRSS2 activity, Mean (0 nM = 100): 5.478
[2]; inhibitor 166.5 nM, 30 min in plasma
  TMPRSS2 activity, Mean (0 nM = 100): 3.6809
[2]; inhibitor 166.5 nM, 60 min in plasma
  TMPRSS2 activity, Mean (0 nM = 100): 3.225
[2]; inhibitor 166.5 nM, 120 min in plasma
  TMPRSS2 activity, Mean (0 nM = 100): 7.418
[2]; inhibitor 166.5 nM, 24 h in plasma
  TMPRSS2 activity, Mean (0 nM = 100): 28.8196
[2]; inhibitor 166.5 nM, 10 d in plasma
  TMPRSS2 activity, Mean (0 nM = 100): 97.9296
[2]; inhibitor 166.5 nM, positive ctrl
  TMPRSS2 activity, Mean (0 nM = 100): 2.192
[2]; inhibitor 1665 nM, 0 min in plasma
  TMPRSS2 activity, Mean (0 nM = 100): 4.824
[2]; inhibitor 1665 nM, 30 min in plasma
  TMPRSS2 activity, Mean (0 nM = 100): 0.6431
[2]; inhibitor 1665 nM, 60 min in plasma
  TMPRSS2 activity, Mean (0 nM = 100): 1.811
[2]; inhibitor 1665 nM, 120 min in plasma
  TMPRSS2 activity, Mean (0 nM = 100): 6.253
[2]; inhibitor 1665 nM, 24 h in plasma
  TMPRSS2 activity, Mean (0 nM = 100): 5.605
[2]; inhibitor 1665 nM, 10 d in plasma
  TMPRSS2 activity, Mean (0 nM = 100): 88.1928
[2]; inhibitor 1665 nM, positive ctrl
  TMPRSS2 activity, Mean (0 nM = 100): 0.4038
[3]; inhibitor 0.0167 nM, 0 min in cell culture medium
  Residual TMPRSS2 activity, Mean (0 nM = 100): 104.51
[3]; inhibitor 0.0167 nM, 30 min in cell culture medium
  Residual TMPRSS2 activity, Mean (0 nM = 100): 108.071
[3]; inhibitor 0.0167 nM, 60 min in cell culture medium
  Residual TMPRSS2 activity, Mean (0 nM = 100): 94.6283
[3]; inhibitor 0.0167 nM, 120 min in cell culture medium
  Residual TMPRSS2 activity, Mean (0 nM = 100): 101.99
[3]; inhibitor 0.0167 nM, 24 h in cell culture medium
  Residual TMPRSS2 activity, Mean (0 nM = 100): 104.987
[3]; inhibitor 0.0167 nM, 10 d in cell culture medium
  Residual TMPRSS2 activity, Mean (0 nM = 100): 98.7798
[3]; [4]
  Residual TMPRSS2 activity, Mean (0 nM = 100): 112.676
[3]; inhibitor 0.167 nM, 0 min in cell culture medium
  Residual TMPRSS2 activity, Mean (0 nM = 100): 93.733
[3]; inhibitor 0.167 nM, 30 min in cell culture medium
  Residual TMPRSS2 activity, Mean (0 nM = 100): 95.4083
[3]; inhibitor 0.167 nM, 60 min in cell culture medium
  Residual TMPRSS2 activity, Mean (0 nM = 100): 77.5396
[3]; inhibitor 0.167 nM, 120 min in cell culture medium
  Residual TMPRSS2 activity, Mean (0 nM = 100): 90.8064
[3]; inhibitor 0.167 nM, 24 h in cell culture medium
  Residual TMPRSS2 activity, Mean (0 nM = 100): 102.761
[3]; inhibitor 0.167 nM, 10 d in cell culture medium
  Residual TMPRSS2 activity, Mean (0 nM = 100): 99.2067
[3]; [5]
  Residual TMPRSS2 activity, Mean (0 nM = 100): 96.1679
[3]; inhibitor 1.665 nM, 0 min in cell culture medium
  Residual TMPRSS2 activity, Mean (0 nM = 100): 49.6948
[3]; inhibitor 1.665 nM, 30 min in cell culture medium
  Residual TMPRSS2 activity, Mean (0 nM = 100): 47.8364
[3]; inhibitor 1.665 nM, 60 min in cell culture medium
  Residual TMPRSS2 activity, Mean (0 nM = 100): 26.9293
[3]; inhibitor 1.665 nM, 120 min in cell culture medium
  Residual TMPRSS2 activity, Mean (0 nM = 100): 28.8645
[3]; inhibitor 1.665 nM, 24 h in cell culture medium
  Residual TMPRSS2 activity, Mean (0 nM = 100): 90.2986
[3]; inhibitor 1.665 nM, 10 d in cell culture medium
  Residual TMPRSS2 activity, Mean (0 nM = 100): 96.8623
[3]; [6]
  Residual TMPRSS2 activity, Mean (0 nM = 100): 28.3437
[3]; inhibitor 16.65 nM, 0 min in cell culture medium
  Residual TMPRSS2 activity, Mean (0 nM = 100): 3.839
[3]; inhibitor 16.65 nM, 30 min in cell culture medium
  Residual TMPRSS2 activity, Mean (0 nM = 100): 20.3269
[3]; inhibitor 16.65 nM, 60 min in cell culture medium
  Residual TMPRSS2 activity, Mean (0 nM = 100): 1.937
[3]; inhibitor 16.65 nM, 120 min in cell culture medium
  Residual TMPRSS2 activity, Mean (0 nM = 100): 2.211
[3]; inhibitor 16.65 nM, 24 h in cell culture medium
  Residual TMPRSS2 activity, Mean (0 nM = 100): 42.5007
[3]; inhibitor 16.65 nM, 10 d in cell culture medium
  Residual TMPRSS2 activity, Mean (0 nM = 100): 95.3646
[3]; [7]
  Residual TMPRSS2 activity, Mean (0 nM = 100): 3.3573
[3]; inhibitor 166.5 nM, 0 min in cell culture medium
  Residual TMPRSS2 activity, Mean (0 nM = 100): -1.499
[3]; inhibitor 166.5 nM, 30 min in cell culture medium
  Residual TMPRSS2 activity, Mean (0 nM = 100): -2.333
[3]; inhibitor 166.5 nM, 60 min in cell culture medium
  Residual TMPRSS2 activity, Mean (0 nM = 100): -2.406
